± gives the standard deviation of the averaged measurements.
Tests used:
Experiment in all cases: level (log10 ratio to DMSO vehicle control); higher = higher biomarker level / cell amount than vehicle control
Conditions in all cases: in DMSO
[1] = compound: O=C(O)C(F)(F)C(F)(F)C(F)(F)C(F)(F)C(F)(F)C(F)(F)C(F)(F)C(F)(F)C(F)(F)C(F)(F)C(F)(F)C(F)(F)F [Perfluorotridecanoic acid]
Experimental: (§1)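 BioMAP Diversity Plus panel of 12 human primary cell co-culture systems (3C, 4H, LPS, SAg, BT, BF4T, BE3C, CASM3C, HDF3CGF, KF3CT, MyoF, Mphg). Compounds were added 1 h before stimulation and left for 24 h (MyoF 48 h; BT 72 h for soluble read-outs or 6 d for IgG). Biomarkers were read by ELISA, cytotoxicity by SRB, PBMC viability and proliferation by Alamar Blue. Each well value was divided by the mean of 8 DMSO control wells on the same plate and log10 transformed; duplicate blinded samples were tested at 4 concentrations.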

[2] = compound: C=CC(=O)OCCC(F)(F)C(F)(F)C(F)(F)C(F)(F)F [2-(Perfluorobutyl)ethyl acrylate]
Experimental: as §1

[3] = compound: C=C(C)C(=O)OCC(F)(F)C(F)(F)C(F)(F)C(F)(F)C(F)(F)C(F)(F)C(F)(F)F
Experimental: as §1

[4] = compound: Cn1cnc([N+](=O)[O-])c1Sc1ncnc2[nH]cnc12 [Azathioprine]
Experimental: as §1

[5] = compound: O=C(O)C(F)(F)C(F)(F)C(F)(F)C(F)(F)C(F)(F)C(F)(F)C(F)(F)C(F)(F)C(F)(F)C(F)(F)C(F)(F)C(F)(F)C(F)(F)F [Perfluorotetradecanoic acid]
Experimental: as §1

[6] = compound: O=C(O)CCC(F)(F)C(F)(F)C(F)(F)F [3:3 Fluorotelomer carboxylic acid]
Experimental: as §1

| Test System | level (log10) ([1]; 1500 nM) | level (log10) ([1]; 4400 nM) | level (log10) ([1]; 13000 nM) | level (log10) ([1]; 40000 nM) | level (log10) ([2]; 6700 nM) | level (log10) ([2]; 20000 nM) | level (log10) ([2]; 60000 nM) | level (log10) ([3]; 6700 nM) | level (log10) ([3]; 20000 nM) | level (log10) ([4]; 1400 nM) | level (log10) ([4]; 4200 nM) | level (log10) ([4]; 13000 nM) | level (log10) ([4]; 38000 nM) | level (log10) ([5]; 6700 nM) | level (log10) ([5]; 20000 nM) | level (log10) ([6]; 6700 nM) | level (log10) ([6]; 20000 nM) | level (log10) ([6]; 60000 nM) |
| --- | --- | --- | --- | --- | --- | --- | --- | --- | --- | --- | --- | --- | --- | --- | --- | --- | --- | --- |
| 3C:CCL2/MCP-1 | 0.0135 ± 0.0078 | -0.021 ± 0.0014 | -0.001 ± 0.0085 | 0.0035 ± 0.0035 | -0.0105 ± 0.021 | -0.0305 ± 0.0035 | -0.0245 ± 0.029 | -0.013 ± 0.0042 | 0.018 ± 0.025 | 0.0095 ± 0.0064 | -0.006 | 0.009 ± 0.0014 | -0.0165 ± 0.015 | 0.0125 ± 0.012 | 0.0085 ± 0.018 | -0.011 ± 0.013 | -0.0025 ± 0.005 | 0.022 ± 0.037 |
| 3C:CD54/ICAM-1 | 0.001 ± 0.016 | -0.0125 ± 0.019 | -0.0155 ± 0.025 | -0.0105 ± 0.0078 | 0.0055 ± 0.0021 | -0.01 ± 0.0042 | -0.01 ± 0.011 | 0.019 ± 0.028 | 0.014 ± 0.018 | 0.0035 ± 0.005 | -0.014 ± 0.031 | -0.0085 ± 0.0092 | -0.016 ± 0.013 | -0.0005 ± 0.0078 | -0.0045 ± 0.013 | -0.019 ± 0.0099 | -0.009 ± 0.023 | -0.0015 ± 0.023 |
| 3C:CD62E/E-Selectin | -0.0015 ± 0.019 | -0.0045 ± 0.0064 | -0.0005 ± 0.011 | -0.01 ± 0.018 | -0.016 ± 0.0028 | -0.059 ± 0.0014 | -0.163 ± 0.05 | 0.0095 ± 0.023 | 0.0075 ± 0.0092 | -0.0005 ± 0.012 | -0.013 ± 0.03 | -0.033 ± 0.0099 | -0.0015 ± 0.0078 | -0.0245 ± 0.029 | -0.0105 ± 0.00071 | -0.006 ± 0.0042 | 0.001 ± 0.013 | 0.006 ± 0.0071 |
| 3C:CD106/VCAM-1 | 0.0125 ± 0.012 | -0.0055 ± 0.016 | -0.0185 ± 0.019 | -0.0165 ± 0.018 | -0.0335 ± 0.005 | -0.0715 ± 0.039 | -0.14 ± 0.04 | -0.0145 ± 0.005 | -0.0025 ± 0.018 | 0.006 ± 0.017 | -0.0165 ± 0.0078 | -0.0245 ± 0.022 | -0.0595 ± 0.036 | -0.014 ± 0.016 | -0.0155 ± 0.0078 | -0.0135 ± 0.022 | -0.028 ± 0.024 | -0.019 ± 0.0085 |
| 3C:CD141/Thrombomodulin | -0.0075 ± 0.059 | -0.0355 ± 0.079 | -0.042 ± 0.065 | -0.0505 ± 0.071 | -0.059 ± 0.027 | -0.0955 ± 0.025 | -0.142 ± 0.027 | -0.038 ± 0.0057 | -0.0015 ± 0.032 | -0.0275 ± 0.026 | -0.0055 ± 0.036 | -0.041 ± 0.065 | -0.0855 ± 0.049 | -0.0165 ± 0.036 | -0.024 ± 0.042 | -0.0105 ± 0.011 | -0.018 ± 0.047 | -0.006 ± 0.013 |
| 3C:CD142/Tissue Factor | 0.034 ± 0.023 | 0.024 ± 0.042 | 0.0425 ± 0.025 | 0.0615 ± 0.00071 | -0.0105 ± 0.043 | -0.127 ± 0.034 | -0.381 ± 0.016 | -0.022 ± 0.058 | -0.005 ± 0.051 | 0.02 ± 0.024 | 0.0255 ± 0.046 | 0.042 ± 0.051 | 0.042 ± 0.02 | 0.0275 ± 0.0078 | 0.0665 ± 0.018 | -0.024 ± 0.0014 | 0.0015 ± 0.0078 | 0.0275 ± 0.011 |
| BE3C:Keratin 8/18 | 0.0095 ± 0.0078 | 0.016 ± 0.0042 | -0.0035 ± 0.0021 | 0.005 ± 0.0014 | -0.0135 ± 0.025 | 0 ± 0.016 | 0.006 ± 0.013 | -0.008 ± 0.017 | -0.028 ± 0.027 | -0.009 ± 0.033 | 0.012 ± 0.014 | -0.02 ± 0.047 | -0.0095 ± 0.021 | -0.004 ± 0.03 | -0.011 ± 0.045 | 0.0025 ± 0.0021 | -0.003 ± 0.0042 | -0.023 ± 0.0057 |
| BE3C:MMP-1 | -0.014 ± 0.035 | 0.0385 ± 0.05 | 0.0445 ± 0.043 | 0.0615 ± 0.028 | 0.0175 ± 0.028 | -0.007 ± 0.016 | 0.0705 ± 0.022 | 0.02 ± 0.021 | 0.0655 ± 0.064 | -0.0025 ± 0.013 | 0.001 ± 0.0057 | -0.0235 ± 0.019 | -0.0645 ± 0.0021 | 0.015 ± 0.025 | 0.0505 ± 0.059 | -0.006 ± 0.037 | -0.0235 ± 0.011 | 0.0125 ± 0.044 |
| BE3C:MMP-9 | -0.0105 ± 0.0035 | 0.0005 ± 0.023 | -0.0065 ± 0.0035 | -0.0235 ± 0.00071 | -0.004 ± 0.0071 | -0.006 ± 0.0014 | -0.028 ± 0.0085 | 0 ± 0.0042 | -0.0005 ± 0.0092 | 0.0075 ± 0.046 | 0.0285 ± 0.04 | -0.0135 ± 0.03 | -0.0485 ± 0.028 | -0.033 ± 0.071 | -0.04 ± 0.065 | -0.0025 ± 0.022 | 0.0085 ± 0.0078 | -0.0085 ± 0.025 |
| BE3C:PAI-I | 0.006 ± 0.017 | 0.0335 ± 0.0035 | -0.004 ± 0.042 | -0.0285 ± 0.054 | 0.0125 ± 0.033 | 0.038 ± 0.018 | 0.076 ± 0.021 | 0.0055 ± 0.0078 | 0.0105 ± 0.018 | -0.0235 ± 0.044 | 0.015 ± 0.042 | 0.003 ± 0.05 | -0.071 ± 0.03 | 0.007 ± 0.058 | -0.0175 ± 0.064 | -0.0095 ± 0.00071 | -0.0025 ± 0.015 | 0.0005 ± 0.0078 |
| BE3C:SRB | 0.0085 ± 0.019 | -0.0035 ± 0.0021 | -0.0055 ± 0.0078 | 0.0035 ± 0.0021 | -0.0035 ± 0.005 | -0.0055 ± 0.0021 | -0.0015 ± 0.0021 | -0.0015 ± 0.0021 | -0.0025 ± 0.00071 | 0.013 ± 0.016 | -0.005 | -0.0095 ± 0.0078 | -0.0045 ± 0.0092 | -0.005 ± 0.0057 | 0.0035 ± 0.012 | -0.0065 ± 0.0064 | -0.0065 ± 0.005 | 0.001 ± 0.013 |
| BE3C:tPA | 0.096 ± 0.011 | 0.115 ± 0.0021 | 0.0955 ± 0.032 | 0.03 ± 0.0071 | -0.036 ± 0.041 | -0.056 ± 0.0014 | -0.13 ± 0.018 | -0.013 ± 0.0014 | 0.007 | -0.005 ± 0.078 | -0.0285 ± 0.083 | -0.108 ± 0.083 | -0.236 ± 0.079 | 0.04 ± 0.075 | 0.0035 ± 0.06 | -0.0195 ± 0.0035 | -0.03 ± 0.016 | -0.0365 ± 0.015 |
| BE3C:uPA | -0.0005 ± 0.00071 | 0.008 ± 0.0099 | -0.01 ± 0.02 | -0.0085 ± 0.046 | 0.0075 ± 0.032 | -0.0035 ± 0.022 | -0.0175 ± 0.015 | -0.008 ± 0.011 | -0.004 ± 0.021 | -0.0025 ± 0.016 | 0 ± 0.013 | -0.0115 ± 0.019 | -0.041 ± 0.016 | -0.0075 ± 0.05 | -0.0085 ± 0.056 | -0.0045 ± 0.023 | -0.018 ± 0.017 | -0.0115 ± 0.0021 |
| CASM3C:CCL2/MCP-1 | -0.0135 ± 0.0021 | -0.043 ± 0.033 | -0.04 ± 0.033 | 0.0315 ± 0.033 | -0.001 ± 0.0099 | -0.0085 ± 0.0064 | -0.0035 ± 0.0064 | -0.015 ± 0.0042 | 0.007 ± 0.018 | 0.0135 ± 0.044 | -0.012 ± 0.014 | -0.0195 ± 0.021 | -0.001 ± 0.052 | -0.0615 ± 0.036 | -0.03 ± 0.021 | -0.011 ± 0.021 | -0.015 ± 0.0028 | -0.0135 ± 0.022 |

Source: the supplement of paper PMC10331698
